Assay results published in ChEMBL document CHEMBL1201862, “PubChem BioAssay data set” (2004).
Calls of active or inactive are those of the source.

Key:
[1] = Luminescence Cell-Based Dose Retest to Confirm Inhibitors of Cancer Stem Cells. [Related pubchem assays (depositor defined):AID2717, AID2721]; type: functional; details: Homo sapiens
Procathepsin L = Procathepsin L (Homo sapiens, UniProt P07711)
Aspartyl aminopeptidase = Aspartyl aminopeptidase (Plasmodium falciparum 3D7, UniProt Q8I2J3)
[2] = target: Alkaline phosphatase, placental type (Homo sapiens, UniProt P05187); test: human placental alkaline phosphatase inhibition – biochemical, luminescence, confirmation (AID 1512); type: functional
[3] = target: Lysosomal acid glucosylceramidase (Homo sapiens, UniProt P04062); test: Dose response cell-based high throughput screening assay to identify enhancers of beta-glucosidase activity. [Related pubchem assays: 784 ]; type: functional
[4] = target: T1, Eukaryotic translation initiation factor 2-alpha kinase 3 (Homo sapiens, UniProt Q9NZJ5); test: Counterscreen assay for PERK inhibitors: Dose response cell-based high throughput screening assay to measure inhibition of PERK at 6 hours. [Related pubchem assays: 1522, 1416 ]; type: functional
[5] = target: T1, Eukaryotic translation initiation factor 2-alpha kinase 3; test: Dose response cell-based high-throughput screening assay to measure PERK inhibition. [Related pubchem assays: 1416 ]; type: functional
[6] = target: Metabotropic glutamate receptor 4 (Rattus norvegicus, UniProt P31423); test: Modulation of the Metabotropic Glutamate Receptor mGluR4: Rat PAM Potency. [Related pubchem assays (depositor defined):AID2437, AID2807]; type: functional
T-cell = test: loss of vesicle association with mouse CD8+ T cells – mouse 2C CD8+ T cells, flow cytometry, dose response (AID 485284); type: functional
[7] = Trypanosoma cruzi growth suppression in host cells – NIH3T3 host cells, beta-gal luminescence, confirmation (AID 2044); type: functional, cell-based;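 also: intracellular parasites grown in NIH/3T3 mouse fibroblasts as host cells; luminescent beta-galactosidase reporter signal from transgenic T. cruzi replicating inside host cells; inhibitors lower the luminescence signal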
[8] = Vero E6 cell cytotoxicity, dose response, cytotoxicity control for non-replicating M. tuberculosis project, secondary assay (AID 492998); type: functional, VeroE6; details: Vero C1008
cells [9] = test: cells
[10] = NIH-3T3 fibroblast cytotoxicity, dose response, cytotoxicity control, cell-based, fluorescence, Alamar Blue, secondary assay (AID 2327); type: functional;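 also: NIH-3T3 mouse fibroblasts cultured with fluconazole at 8 µg/mL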
[11] = fluconazole-exposed Candida albicans growth modulators – fluorescence, retest, confirmation (AID 2467); type: functional, cell-based
INS1 = test: INS-1E survival protection against cytokine death – cell-based, luminescence, retest, dose response (AID 449756); type: functional; details: Rattus norvegicus;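 also: cell death triggered by IL-1 beta plus TNF-alpha plus IFN-gamma mixture; protective hits raise ATP signal compared with cytokine alone wells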
cells [12] = type: functional
[13] = THP-1 cell cytotoxicity, dose response, cytotoxicity control for non-replicating M. tuberculosis project (AID 489025); type: functional
[14] = HepG2 cell cytotoxicity, dose response, cytotoxicity control for non-replicating M. tuberculosis project (AID 489018); type: functional; details: Mycobacterium tuberculosis
[15] = NIH/3T3 cell viability loss – mouse embryonic fibroblasts, dry powder, set 2, cytotoxicity control, dose response (AID 493247); type: functional, cell-based; details: Fibroblast
[16] = A cytotoxicity screen of small molecule inhibitors of the PhoP region in Salmonella typhi identified in the primary screen. [Related pubchem assays: 1850, 1864, 1985 ]; type: functional
Trypanosoma cruzi = test: anti-trypanosomal activity in host cells – cell-based, plate reader, dry powder, set 3, dose response (AID 493197); type: functional
[17] = target: T2, Sphingosine 1-phosphate receptor 4 (Homo sapiens, UniProt O95977); test: potency of S1P4 activators – cell-based, fluorescence, synthesized compounds, late-stage follow-up (AID 463107); type: functional
T2 sequence (O95977 whole entry): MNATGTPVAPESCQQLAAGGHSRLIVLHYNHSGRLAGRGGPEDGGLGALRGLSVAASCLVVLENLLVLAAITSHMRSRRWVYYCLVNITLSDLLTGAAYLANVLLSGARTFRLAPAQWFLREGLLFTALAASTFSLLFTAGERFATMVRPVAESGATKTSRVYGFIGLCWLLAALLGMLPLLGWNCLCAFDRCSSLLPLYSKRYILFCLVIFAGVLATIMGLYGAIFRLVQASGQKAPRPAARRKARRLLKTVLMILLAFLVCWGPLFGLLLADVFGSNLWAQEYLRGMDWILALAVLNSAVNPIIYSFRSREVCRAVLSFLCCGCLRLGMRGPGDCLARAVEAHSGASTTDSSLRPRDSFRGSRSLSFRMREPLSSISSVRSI

[18] = target: Nucleotide-binding oligomerization domain-containing protein 2 (Homo sapiens, UniProt Q9HC29); test: PubChem AID 2334; type: functional
[19] = target: T3, Nucleotide-binding oligomerization domain-containing protein 1 (Homo sapiens, UniProt Q9Y239); test: blockers of NOD1 pathway activity – revised, SAR follow-up (AID 2333); type: functional
T3 sequence (Q9Y239 whole entry): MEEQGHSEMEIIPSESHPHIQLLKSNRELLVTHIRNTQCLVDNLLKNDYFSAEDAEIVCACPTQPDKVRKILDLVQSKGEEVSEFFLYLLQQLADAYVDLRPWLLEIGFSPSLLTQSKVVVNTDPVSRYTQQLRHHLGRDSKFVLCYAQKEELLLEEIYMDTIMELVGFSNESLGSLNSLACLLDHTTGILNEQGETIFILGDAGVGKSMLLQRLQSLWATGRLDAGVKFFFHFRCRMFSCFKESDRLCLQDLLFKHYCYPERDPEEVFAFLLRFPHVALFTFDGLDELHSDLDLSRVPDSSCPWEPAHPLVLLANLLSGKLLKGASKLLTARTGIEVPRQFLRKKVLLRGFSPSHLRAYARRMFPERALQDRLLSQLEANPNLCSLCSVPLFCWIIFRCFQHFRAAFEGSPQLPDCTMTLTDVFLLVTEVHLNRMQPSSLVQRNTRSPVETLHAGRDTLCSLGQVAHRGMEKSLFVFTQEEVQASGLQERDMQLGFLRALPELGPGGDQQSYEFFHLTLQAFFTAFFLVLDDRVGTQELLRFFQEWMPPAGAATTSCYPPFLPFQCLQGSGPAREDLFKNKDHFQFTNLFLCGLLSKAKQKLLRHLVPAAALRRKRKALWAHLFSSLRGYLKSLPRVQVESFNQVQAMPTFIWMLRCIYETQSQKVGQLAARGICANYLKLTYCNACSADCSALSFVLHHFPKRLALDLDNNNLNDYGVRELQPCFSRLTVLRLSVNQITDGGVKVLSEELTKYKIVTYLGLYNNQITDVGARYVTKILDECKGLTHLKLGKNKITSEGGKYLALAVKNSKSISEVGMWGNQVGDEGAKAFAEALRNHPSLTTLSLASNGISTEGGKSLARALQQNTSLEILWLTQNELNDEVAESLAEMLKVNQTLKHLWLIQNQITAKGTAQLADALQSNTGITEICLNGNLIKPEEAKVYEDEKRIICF

HEK293 = test: cells; details: Homo sapiens
Tumor necrosis factor = Tumor necrosis factor (Homo sapiens, UniProt P01375); test: analog potency on TNFa NF-kB signaling – cell-based, revised, SAR follow-up (AID 2337); type: functional
[20] = target: Cyclin-dependent kinase 5/CDK5 activator 1 (Homo sapiens, UniProt Q00535); test: blockade of human CDK5 activity – biochemical, cherry-picked samples, set 2, dose response (AID 504545)
Cyclin-dependent kinase 5/CDK5 activator 1, sequence (Q00535 whole entry): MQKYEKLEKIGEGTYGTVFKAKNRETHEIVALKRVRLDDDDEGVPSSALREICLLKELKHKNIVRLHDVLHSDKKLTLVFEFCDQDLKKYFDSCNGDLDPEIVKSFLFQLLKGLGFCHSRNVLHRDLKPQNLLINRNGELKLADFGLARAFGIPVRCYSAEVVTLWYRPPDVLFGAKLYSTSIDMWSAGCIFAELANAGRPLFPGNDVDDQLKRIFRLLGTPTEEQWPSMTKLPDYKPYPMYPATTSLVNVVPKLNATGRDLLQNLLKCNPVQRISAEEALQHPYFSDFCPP
Cyclin-dependent kinase 5/CDK5 activator 1, sequence (Q15078 whole entry, further chain): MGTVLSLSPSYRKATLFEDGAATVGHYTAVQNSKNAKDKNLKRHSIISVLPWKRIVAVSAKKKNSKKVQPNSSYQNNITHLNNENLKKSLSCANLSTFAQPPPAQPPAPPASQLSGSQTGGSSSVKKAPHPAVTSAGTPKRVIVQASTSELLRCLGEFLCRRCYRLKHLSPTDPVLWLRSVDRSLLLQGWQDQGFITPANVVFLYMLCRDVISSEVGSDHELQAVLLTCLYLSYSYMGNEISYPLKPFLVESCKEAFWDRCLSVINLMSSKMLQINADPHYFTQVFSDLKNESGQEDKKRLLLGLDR

T1 sequence (Q9NZJ5 whole entry): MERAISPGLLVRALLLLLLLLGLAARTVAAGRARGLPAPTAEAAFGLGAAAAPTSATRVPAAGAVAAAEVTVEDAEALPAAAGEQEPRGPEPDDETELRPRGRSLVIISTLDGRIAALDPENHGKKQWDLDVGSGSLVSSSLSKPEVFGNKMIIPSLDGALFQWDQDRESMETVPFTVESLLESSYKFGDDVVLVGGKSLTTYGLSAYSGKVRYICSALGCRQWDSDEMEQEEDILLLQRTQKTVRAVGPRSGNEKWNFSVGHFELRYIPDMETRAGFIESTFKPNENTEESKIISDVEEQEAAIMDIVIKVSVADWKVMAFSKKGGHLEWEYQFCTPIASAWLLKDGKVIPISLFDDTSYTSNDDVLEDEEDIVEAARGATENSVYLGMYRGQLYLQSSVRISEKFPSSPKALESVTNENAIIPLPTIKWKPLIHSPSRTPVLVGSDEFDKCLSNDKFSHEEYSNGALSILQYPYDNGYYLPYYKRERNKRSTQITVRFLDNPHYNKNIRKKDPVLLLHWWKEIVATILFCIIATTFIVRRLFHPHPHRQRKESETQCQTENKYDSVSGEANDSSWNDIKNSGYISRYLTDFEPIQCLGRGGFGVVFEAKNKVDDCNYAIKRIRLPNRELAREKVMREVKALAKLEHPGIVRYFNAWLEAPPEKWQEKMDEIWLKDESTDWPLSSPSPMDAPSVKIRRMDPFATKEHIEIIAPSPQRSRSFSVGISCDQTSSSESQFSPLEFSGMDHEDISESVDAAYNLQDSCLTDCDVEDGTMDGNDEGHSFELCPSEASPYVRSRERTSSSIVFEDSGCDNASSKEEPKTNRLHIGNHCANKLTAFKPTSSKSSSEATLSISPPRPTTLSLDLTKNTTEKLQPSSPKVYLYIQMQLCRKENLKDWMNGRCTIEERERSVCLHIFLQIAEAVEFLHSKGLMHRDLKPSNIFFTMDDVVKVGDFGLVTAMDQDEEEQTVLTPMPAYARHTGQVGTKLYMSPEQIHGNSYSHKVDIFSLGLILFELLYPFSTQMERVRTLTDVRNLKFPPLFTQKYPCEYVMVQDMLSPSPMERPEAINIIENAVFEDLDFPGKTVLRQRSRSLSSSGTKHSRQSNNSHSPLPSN
Lysosomal acid glucosylceramidase, sequence (P04062 whole entry): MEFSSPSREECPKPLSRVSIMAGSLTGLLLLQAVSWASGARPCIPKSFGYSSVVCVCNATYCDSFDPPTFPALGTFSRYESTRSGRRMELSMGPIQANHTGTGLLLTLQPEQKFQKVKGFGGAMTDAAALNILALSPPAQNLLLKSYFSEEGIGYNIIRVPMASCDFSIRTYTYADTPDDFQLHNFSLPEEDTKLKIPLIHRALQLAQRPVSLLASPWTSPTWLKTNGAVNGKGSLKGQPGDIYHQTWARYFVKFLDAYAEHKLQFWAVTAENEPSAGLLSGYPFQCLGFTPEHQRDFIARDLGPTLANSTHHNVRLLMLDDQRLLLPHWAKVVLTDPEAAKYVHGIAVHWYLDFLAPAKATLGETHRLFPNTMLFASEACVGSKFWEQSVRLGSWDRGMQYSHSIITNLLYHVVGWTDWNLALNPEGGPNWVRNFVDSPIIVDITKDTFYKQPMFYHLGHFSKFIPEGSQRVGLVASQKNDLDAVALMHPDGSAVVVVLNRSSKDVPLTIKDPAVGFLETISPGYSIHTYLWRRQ
Tumor necrosis factor, sequence (P01375 whole entry): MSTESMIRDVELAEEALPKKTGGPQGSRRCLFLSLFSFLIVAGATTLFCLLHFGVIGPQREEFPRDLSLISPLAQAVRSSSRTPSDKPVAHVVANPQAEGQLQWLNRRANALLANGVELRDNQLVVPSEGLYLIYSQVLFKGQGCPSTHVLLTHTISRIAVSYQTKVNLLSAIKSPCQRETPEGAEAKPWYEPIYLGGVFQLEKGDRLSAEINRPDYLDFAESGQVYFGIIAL
Procathepsin L, sequence (P07711 whole entry): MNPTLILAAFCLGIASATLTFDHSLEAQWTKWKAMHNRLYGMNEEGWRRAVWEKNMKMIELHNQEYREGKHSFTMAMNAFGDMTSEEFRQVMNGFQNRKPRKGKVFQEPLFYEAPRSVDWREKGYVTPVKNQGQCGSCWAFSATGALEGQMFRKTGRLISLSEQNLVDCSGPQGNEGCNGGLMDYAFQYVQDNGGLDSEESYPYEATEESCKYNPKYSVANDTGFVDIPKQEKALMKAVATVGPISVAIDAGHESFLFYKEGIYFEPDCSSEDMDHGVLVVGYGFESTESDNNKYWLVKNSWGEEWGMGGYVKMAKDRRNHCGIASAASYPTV
Metabotropic glutamate receptor 4, sequence (P31423 whole entry): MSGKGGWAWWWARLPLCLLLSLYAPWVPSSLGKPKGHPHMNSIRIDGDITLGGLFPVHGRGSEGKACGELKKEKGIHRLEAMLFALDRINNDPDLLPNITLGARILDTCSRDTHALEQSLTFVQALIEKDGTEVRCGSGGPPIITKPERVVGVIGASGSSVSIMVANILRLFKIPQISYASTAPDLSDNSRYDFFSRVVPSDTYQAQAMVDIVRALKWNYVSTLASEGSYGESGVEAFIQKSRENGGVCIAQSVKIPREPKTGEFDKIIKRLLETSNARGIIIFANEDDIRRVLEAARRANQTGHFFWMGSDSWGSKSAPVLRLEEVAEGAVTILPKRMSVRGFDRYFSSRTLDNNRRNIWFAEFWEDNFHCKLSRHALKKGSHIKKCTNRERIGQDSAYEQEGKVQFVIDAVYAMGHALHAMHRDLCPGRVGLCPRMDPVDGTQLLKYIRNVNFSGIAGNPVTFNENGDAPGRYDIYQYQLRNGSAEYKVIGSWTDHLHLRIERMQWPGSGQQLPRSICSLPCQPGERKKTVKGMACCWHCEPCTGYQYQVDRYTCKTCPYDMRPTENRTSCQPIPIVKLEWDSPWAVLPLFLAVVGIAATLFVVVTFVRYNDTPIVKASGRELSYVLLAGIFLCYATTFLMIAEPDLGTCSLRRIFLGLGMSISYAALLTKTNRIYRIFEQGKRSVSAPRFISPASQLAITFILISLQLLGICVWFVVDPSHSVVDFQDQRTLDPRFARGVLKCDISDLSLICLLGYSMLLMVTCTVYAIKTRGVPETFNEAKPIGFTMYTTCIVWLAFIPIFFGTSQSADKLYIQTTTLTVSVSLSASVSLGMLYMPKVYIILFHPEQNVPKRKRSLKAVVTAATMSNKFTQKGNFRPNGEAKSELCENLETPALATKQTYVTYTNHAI
Nucleotide-binding oligomerization domain-containing protein 2, sequence (Q9HC29 whole entry, the tested form may be a part): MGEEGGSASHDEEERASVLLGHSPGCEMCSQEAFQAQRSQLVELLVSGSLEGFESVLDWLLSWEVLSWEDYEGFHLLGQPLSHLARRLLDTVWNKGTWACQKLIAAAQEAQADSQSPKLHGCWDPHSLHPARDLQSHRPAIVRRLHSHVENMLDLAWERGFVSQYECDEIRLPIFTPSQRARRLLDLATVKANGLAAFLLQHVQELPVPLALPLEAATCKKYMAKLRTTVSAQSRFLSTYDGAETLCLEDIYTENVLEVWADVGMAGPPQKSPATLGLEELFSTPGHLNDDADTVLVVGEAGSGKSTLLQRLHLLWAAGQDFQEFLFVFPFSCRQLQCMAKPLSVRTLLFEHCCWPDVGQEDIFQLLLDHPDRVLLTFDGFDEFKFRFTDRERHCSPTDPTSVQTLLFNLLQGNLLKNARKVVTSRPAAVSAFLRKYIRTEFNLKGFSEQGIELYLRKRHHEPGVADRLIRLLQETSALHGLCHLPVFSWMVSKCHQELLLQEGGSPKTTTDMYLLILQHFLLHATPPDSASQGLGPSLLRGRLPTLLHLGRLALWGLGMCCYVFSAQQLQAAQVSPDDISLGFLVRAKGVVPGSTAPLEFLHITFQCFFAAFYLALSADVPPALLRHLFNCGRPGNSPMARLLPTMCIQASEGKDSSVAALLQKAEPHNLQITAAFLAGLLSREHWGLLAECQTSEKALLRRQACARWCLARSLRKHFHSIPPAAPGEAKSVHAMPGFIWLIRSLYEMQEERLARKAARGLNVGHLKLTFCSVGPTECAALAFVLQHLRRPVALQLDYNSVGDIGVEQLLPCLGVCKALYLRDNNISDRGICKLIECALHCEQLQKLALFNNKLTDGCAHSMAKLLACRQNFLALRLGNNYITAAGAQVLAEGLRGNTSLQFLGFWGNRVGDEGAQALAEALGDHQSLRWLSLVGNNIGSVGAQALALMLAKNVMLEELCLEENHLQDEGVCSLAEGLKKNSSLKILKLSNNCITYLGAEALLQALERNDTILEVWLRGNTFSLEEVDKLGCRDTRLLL

## COCCNC(=O)NC1(C(F)(F)F)Oc2ccc(Cl)cc2O1 (configuration not stated)
[1]
  AC50: 6.47 µM (active)
Procathepsin L
  IC50: > 59.6 µM (not active)
Aspartyl aminopeptidase
  IC50: 2.12 µM (active)
[2]
  IC50: 6.75 µM (active)

## CCOc1ccc(S(=O)(=O)NCC2CCCO2)c2cccnc12 (configuration not stated)
[3]
  EC50: > 10 µM (not active)

## COc1cc(C(C#N)N2CCOCC2)ccc1O (configuration not stated)
[4]
  EC50: > 55.7 µM (not active)
[5]
  EC50: > 55.7 µM (not active)

## CC1(C)[C@@H]2C(=O)N(c3ccc(NC(=O)c4ccccn4)cc3Cl)C(=O)[C@@H]21
[6]
  EC50: 0.69 µM (active)

## CCOC(=O)/C=C1\SCC(=O)N1CC(=O)NC1CCCCC1
T-cell
  EC50: 7.17 µM (active)

## O=C(CCC(=O)Nc1ccc(Cl)cc1Cl)N/N=C/c1ccc([N+](=O)[O-])o1
[7]
  EC50: < 0.1 µM (active)
[8]
  CC50: > 20 µM (active)
Cells [9]
  EC50: 0.007 µM (active)
[10]
  EC50: 8.66 µM (inconclusive)
[11]
  EC50: 2.3 µM (active)
INS1
  AC50: 15.2 µM (active)
Cells [12]
  IC50: 0.85 µM (active)
[13]
  CC50: 17.4 µM (active)
[14]
  CC50: 14 µM (active)
[15]
  AC50: 11.4 µM (active)
[16]
  EC50: > 50 µM (active)
Trypanosoma cruzi
  AC50: < 0.003 µM (active)

## O=[N+]([O-])c1ncccc1OCCOc1ccc(Cl)cc1Cl
[17]
  EC50: 29.8 µM (inactive)

## CCC1CCc2c(sc(NC(=O)c3ccccc3Br)c2C(=O)OC)C1 (configuration not stated)
[18]
  IC50: > 20 µM (inactive)
[19]
  IC50: > 20 µM (inactive)
HEK293
  IC50: > 20 µM (inactive)
Tumor necrosis factor
  IC50: > 20 µM (inactive)

## Cc1nn(-c2ccc(Cl)cn2)c2c1C(=O)CC(C)(C)C2Br (configuration not stated)
[20]
  AC50: 89.2 µM (active)
